Patent publication US7094602B2, “Method for cell culture” (Fuji Photo Film Co, Ltd., priority 2002, dated 2006)

Legend:
CHL cells = experiment: Influence of chelating agent on cultured cells (Example 5); type: cell-based, Chinese Hamster; conditions: cultured two days at 37° C. in the medium, 1.5 mM EDTA, GEDTA, DTPA, EDTPO, 3 g/l HMPA, 3 mM HEDP
Method: CHL cells cultured beforehand were collected by trypsinization, and the cell density was adjusted to 50000 cells/ml. This cell suspension was inoculated on a polystyrene cell culture dish at a cell number of 10000 cells/cm^2, and each of the following media was added. Then, the cells were cultured at 37° C. for two days by using a CO2 incubator. The results of evaluation of stimulative property on the cells based on morphology and proliferation property of the cultured cells are shown in Table 3. The results are represented by using the result obtained for the cells cultured with the medium a mention d in the table as a standard. […] Eagle's minimum medium (MEM) • Medium b: […] MEM added with 1.5 mM diethylenetriamine-N,N,N′,N,N-pentaacetic acid (DTPA) • Medium e: MEM added with 3 g/l of sodium hexametaphosphate (HMPA) • Medium f: […] MEM added with 1.5 mM ethylenediamine-N,N,N′,N′-tetrakis(methylenephosphoric acid) (EDTPO) As for the media b to f, pH was adjusted to that of the medium a with NaOH or HCl after the chemicals were added.

[1] = system: CHL (Chinese Hamster Lung Cell); experiment: Detachment of cultured cell layer from carrier for cell culture (Example 2); type: cell-based; conditions: time required to detach CHL cell layer from calcium alginate/collagen carrier on immersion; MEM with EDTA, 3 g/l HMPA or 3 mM HEDP
Method: • Used cell: CHL (Chinese Hamster Lung Cell) • Used medium: Eagle's minimum medium containing 10% bovine fetal serum Carrier for Cell Culture: The carrier for cell culture prepared in Example 1, adhered to bottom surfaces of polystyrene cell culture dishes with double-sided tapes, and a polystyrene cell culture dishes alone as a comparative example were subjected to UV sterilization or electron beam sterilization. The operation, wherein the medium was added to the dishes to immerse the carrier for cell cultures for 5 minutes and then the medium was exchanged, was repeated three times, and then the dishes were left overnight to allow the medium to infiltrate into the carriers for cell culture. The calls cultured beforehand were collected by trypsin treatment, and the cell density was adjusted to 50,000 cells/ml. After the medium in the cells and dishes was discarded, the cell suspension was inoculated into the dishes at a cell number of 10,000 cells/cm^2, and then the medium was added. Thereafter, the cells were cultured at 37° C. for two days by using a CO2 incubator. The samples obtained by the culture were immersed in each of the following seven kinds of detachment solutions and non-detachment solutions, and then the cell layers were pulled with a pair of tweezers to examine state of detachment of the cell layers from the carriers for cell culture. A period of time required for the detachment of each cell layer was measured. Then, the cell sheets detached with an immersion time in a detachment solution of 30 minutes was placed on a polystyrene cell culture dish, added with the medium and cultured at 37° C. for one day by using a CO2 incubator. The cells were stained with trypan blue and observed under an optical microscope. The use of detachment agents of the present invention provided favorable detachment characteristics, that is, high survival rate of the cells and non-stimulative property (i.e., no cell deformation due to stimulation) was successfully confirmed. […]

[2] = system: CHL (Chinese Hamster Lung Cell); type: cell-based; conditions: cell layer transfer with weighting 0.8 g/cm^2, immersion 10 minutes, culture one day, immersion 20 minutes; for State of cells after detachment: Morphology of survived cells: optical microscope; for State of cells after detachment: Survival rate: trypan blue
Source text: The samples obtained by the culture on the carriers for cell culture in Example 2 were taken out together with the carriers for cell culture, and placed on polystyrene cell culture dishes in such a manner that the cell layer surfaces contacted with the dishes, and foamed urethane filters having a thickness of 3 mm and stainless steel plates were placed thereon in this order. The weight of each stainless steel plate was adjusted so that the total weight including the weight of the urethane filter became 0.8 g/cm^2. Then, the samples were immersed in the detachment solution (iii), (iv) or (v) mentioned in Example 2 for 10 minutes, and after the solution was replaced with the medium, culture was performed at 37° C. for one day by using a CO2 incubator. The cultures were immersed in the same detachment solutions for 20 minutes, and then the carriers for cell culture were detached by pulling with a pair of tweezers. Then, the solutions were replaced with the medium, and culture was continued at 37° C. for one day by using a CO2 incubator. The cells were stained with trypan blue and then observed under an optical microscope. Favorable results were obtained with the detachment solutions of the present invention. In the sample where the weight was applied only by using the stainless steel plates without using the […] and the sample where the detachment solution (i) was used, the cells died during the transfer operation. Further, in the sample where the detachment solution (ii) was used, transfer was not successful.

[3] = system: HepG2 (human liver cancer derived cells) laminated on BRL (Buffalo Rat Liver 3A); experiment: Lamination of cell layers, cytochrome P-450 3A metabolism of BFC to HFC (Example 4); type: cell-based; conditions: HepG2 layer transferred on BRL with the detachment solution; cultured 90 hours, BFC added, cultured two days
Method: In the same manner as that of Example 2, HepG2 (human liver cancer derived cells) was cultured on the carrier for cell culture of Example 1, and BRL (Buffalo Rat Liver 3A, ATCC No. CRL 1442) was cultured on a polystyrene cell culture dish. Cell layers were transferred on the cells cultured on the dishes by using the detachment solution (v) mentioned in Example 2 in the same manner as that of Example 3 to obtain laminated cells.

Structure (SMILES) | State of cells: Morphology (CHL cells) | State of cells: Proliferation rate (CHL cells; relative to medium a (MEM)) | Detachment time [1] [min] | State of cells after detachment: Morphology of survived cells [2] | State of cells after detachment: Survival rate [2] | HFC produced through metabolism by cytochrome P-450 3A in laminated cells (fluorescence microscope) [3]
O=C(O)CN(CCN(CC(=O)O)CC(=O)O)CC(=O)O [(iii) MEM + EDTA, EDTA] | X (30% or less of not rounded cells are indicated with X) | X (degradation to 70% or less is indicated with X) | 15 | – | – | –
O=P1([O-])OP(=O)([O-])OP(=O)([O-])OP(=O)([O-])OP(=O)([O-])OP(=O)([O-])O1.[Na+].[Na+].[Na+].[Na+].[Na+].[Na+] [(iv) MEM + HMPA, sodium hexametaphosphate] | – | – | 10 | Not deformed | 90% or more | –
CC(O)(P(=O)(O)O)P(=O)(O)O [(v) MEM + HEDP, 1-hydroxyethane-1,1-diphosphoric acid] | – | – | 20 | Not deformed | 90% or more | Fluorescence derived from HFC was observed in the portions of HepG2
